Data taken from patent US20240408216A1, “PROTEIN INHIBITOR OR DEGRADING AGENT, PHARMACEUTICAL COMPOSITION CONTAINING SAME AND PHARMACEUTICAL USE” (JING MEDICINE TECHNOLOGY (SHANGHAI) LTD., priority 2021, published 2024).

Assays:
[1] = target: T1, BaF3 (EGFR Del19/C797S) (Homo sapiens, UniProt P00533, C797S, cells depend on it, form not given); assay: Cell proliferation IC50 assay (Cell Titer GLO), BaF3 DC cells; type: cell-based, mouse; settings: Table 6, 72 h
T1 construct: BaF3 (EGFR Del19/C797S)|DC|RPMI1640 + 10% FBS
Protocol: (§1) IC50 of compounds in the present invention was determined by Cell Titer GLO reagent from Promega. The procedures are as follows:
(§2) Tumor cells were cultured in specified medium in an incubator at 37° C. and 5% CO2. The cells were passaged periodically. Cells at the logarithmic growth phase were collected for plating at a density of 2000-4000 cells/well. The next day, the compounds of the present invention were serially diluted and added to the cells, with DMSO being the negative control and the culture media without cells being the blank control. The plate was incubated in the incubator for 72 h. The cell viability assay was performed by adding the detection reagents to the cell culture media according to Cell Titer GLO reagent instructions and detecting luminescent signals on an EnVision microplate reader (PerkinElmer).
(§3) Inhibition of cell growth by the compounds of the present invention was plotted by Prism Graphpad software for statistically calculating the IC50 of the compound of the present invention.

[2] = test system: A431; assay: Cell proliferation IC50 assay (Cell Titer GLO), A431 cells; type: cell-based; settings: Homo sapiens, A-431; Table 6; A431, 72 h; read-out: A431 IC50
Protocol: as §1, §2, §3

[3] = test system: BaF3 (EGFR WT); assay: Cell proliferation IC50 assay (Cell Titer GLO), BaF3 WT cells; type: cell-based; settings: Mus musculus, Ba/F3 EGFR, Table 6, 10 ng/ml EGF, 72 h
Protocol: as §1, §2, §3

[4] = test system: BaF3 (EGFR L858R/T790M/C797S); assay: Cell proliferation IC50 assay (Cell Titer GLO), BaF3 LTC cells; type: cell-based; settings: Mus musculus, Ba/F3 EGFR, Table 6, 72 h
Protocol: as §1, §2, §3

T1 sequence (P00533 with tags, fused parts or gaps DEL746-750/C797S, form open): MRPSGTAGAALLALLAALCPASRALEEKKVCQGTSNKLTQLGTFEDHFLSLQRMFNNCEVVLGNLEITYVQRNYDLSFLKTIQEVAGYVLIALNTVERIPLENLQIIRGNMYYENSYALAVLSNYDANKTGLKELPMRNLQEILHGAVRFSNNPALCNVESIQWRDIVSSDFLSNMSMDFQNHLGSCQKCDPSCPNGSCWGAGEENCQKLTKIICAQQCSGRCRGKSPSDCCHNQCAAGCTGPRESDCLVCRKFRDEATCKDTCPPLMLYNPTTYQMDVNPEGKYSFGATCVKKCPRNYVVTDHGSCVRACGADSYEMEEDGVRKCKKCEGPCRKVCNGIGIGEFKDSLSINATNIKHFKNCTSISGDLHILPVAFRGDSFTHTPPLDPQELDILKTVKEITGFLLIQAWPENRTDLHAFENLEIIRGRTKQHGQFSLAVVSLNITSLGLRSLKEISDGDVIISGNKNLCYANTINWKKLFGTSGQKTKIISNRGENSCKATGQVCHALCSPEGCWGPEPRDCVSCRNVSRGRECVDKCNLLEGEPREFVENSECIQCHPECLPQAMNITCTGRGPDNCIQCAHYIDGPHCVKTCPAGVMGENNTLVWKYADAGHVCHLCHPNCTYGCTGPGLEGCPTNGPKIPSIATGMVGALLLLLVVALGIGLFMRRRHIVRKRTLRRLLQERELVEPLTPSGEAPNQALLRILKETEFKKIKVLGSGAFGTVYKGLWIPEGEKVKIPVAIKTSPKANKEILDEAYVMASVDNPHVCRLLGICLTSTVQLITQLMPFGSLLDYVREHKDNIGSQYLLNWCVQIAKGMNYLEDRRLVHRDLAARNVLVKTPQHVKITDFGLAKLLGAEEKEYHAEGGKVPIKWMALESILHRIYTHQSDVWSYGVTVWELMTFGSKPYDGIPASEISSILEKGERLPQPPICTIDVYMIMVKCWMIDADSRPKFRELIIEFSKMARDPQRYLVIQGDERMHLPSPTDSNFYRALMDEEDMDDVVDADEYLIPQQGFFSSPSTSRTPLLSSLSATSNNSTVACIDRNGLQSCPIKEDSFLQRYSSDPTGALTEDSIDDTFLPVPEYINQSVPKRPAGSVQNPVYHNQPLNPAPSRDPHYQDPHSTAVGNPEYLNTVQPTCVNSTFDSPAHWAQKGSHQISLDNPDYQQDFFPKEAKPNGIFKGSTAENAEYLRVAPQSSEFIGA

Row | SMILES | IC50 [1] | IC50 [2] | IC50 [3] | IC50 [4]
1 | CCc1cc(Nc2ncc(Cl)c(Nc3ccccc3P(C)(C)=O)n2)c(OC)cc1N1CCC(N2CCN(CCOc3cccc4c3CN(C3CCC(=O)NC3=O)C4=O)CC2=O)CC1 (stereo not shown) [Example E118] | 6.3 nM | 1340 nM | > 4000 nM | 112 nM
2 | CCc1cc(Nc2ncc(Cl)c(Nc3ccccc3P(C)(C)=O)n2)c(OC)cc1N1CCC(N2CCN(CCCCNc3cccc4c3CN(C3CCC(=O)NC3=O)C4=O)CC2)CC1 (stereo not shown) [Example E119] | 5.6 nM | 1400 nM | > 4000 nM | 67.3 nM
3 | COc1cc(N2CCC(N3CCN(CCCCOc4cccc5c4CN(C4CCC(=O)NC4=O)C5=O)CC3)CC2)c(CO)cc1Nc1ncc(Cl)c(Nc2ccccc2P(C)(C)=O)n1 (stereo not shown) [Example E127] | 8.7 nM | 1270 nM | 595 nM | 79.6 nM
4 | CCc1cc(Nc2ncc(Cl)c(Nc3ccccc3P(C)(C)=O)n2)cc(C(N)=O)c1N1CCC(N2CCN(CCCCOc3cccc4c3CN(C3CCC(=O)NC3=O)C4=O)CC2)CC1 (stereo not shown) [Example E139] | 60.9 nM | 963 nM | 554 nM | 694 nM
5 | CCc1cc(Nc2nc(Nc3ccccc3P(C)(C)=O)c3cc[nH]c3n2)c(OC)cc1N1CCC(N2CCN(CCCCOc3cc(F)cc4c3CN(C3CCC(=O)NC3=O)C4=O)CC2)CC1 (stereo not shown) [Example E141] | 14.7 nM | > 4000 nM | > 4000 nM | 50.3 nM
6 | CCc1cc(Nc2nc(Nc3ccccc3P(C)(C)=O)c3cc[nH]c3n2)c(C(C)(C)O)cc1N1CCC(N2CCN(CCCCOc3cccc4c3CN(C3CCC(=O)NC3=O)C4=O)CC2)CC1 (stereo not shown) [Example E142] | 124 nM | > 4000 nM | 792 nM | 1100 nM
7 | CCc1cc(Nc2ncc(Cl)c(Nc3ccccc3P(C)(C)=O)n2)c(OC)cc1N1CCC(N2CCN(CCOc3cccc4c3CN(C3CCC(=O)NC3=O)C4=O)C3(CC3)C2)CC1 (stereo not shown) [Example E144] | 35.2 nM | 1370 nM | 1200 nM | 105 nM
8 | CCc1cc(Nc2ncc(Cl)c(Nc3ccccc3P(C)(C)=O)n2)c(OC)cc1N1CCC(N2CCN(CCC#Cc3ccc4c(c3)c(N3CCC(=O)NC3=O)nn4C)CC2)CC1 [Example E145] | 79.1 nM | 1110 nM | > 4000 nM | 506 nM
9 | CCc1cc(Nc2ncc(-c3ccn(C)n3)c(Nc3ccccc3P(C)(C)=O)n2)c(OC)cc1N1CCC(N2CCN(CCOc3cccc4c3CN(C3CCC(=O)NC3=O)C4=O)CC2)CC1 (stereo not shown) [Example E147] | 56.1 nM | > 4000 nM | 1570 nM | 2000 nM
10 | CCc1cc(Nc2ncc(C(=O)N3CCCC3)c(Nc3ccccc3P(C)(C)=O)n2)c(OC)cc1N1CCC(N2CCN(CCOc3cccc4c3CN(C3CCC(=O)NC3=O)C4=O)CC2)CC1 (stereo not shown) [Example E148] | 9.3 nM | > 4000 nM | > 4000 nM | > 4000 nM
11 | CCc1cc(Nc2ncc(-c3nc(C)no3)c(Nc3ccccc3P(C)(C)=O)n2)c(OC)cc1N1CCC(N2CCN(CCOc3cccc4c3CN(C3CCC(=O)NC3=O)C4=O)CC2)CC1 (stereo not shown) [Example E149] | 37.2 nM | > 4000 nM | 1290 nM | 3480 nM
12 | CCc1cc(N2CCC(N3CCN(CCCCOc4cccc5c4CN(C4CCC(=O)NC4=O)C5=O)CC3)CC2)c(CC)cc1Nc1nc(Nc2ccccc2P(C)(C)=O)c2cc[nH]c2n1 (stereo not shown) [Example E153] | 26.3 nM | > 4000 nM | > 4000 nM | 65.9 nM
13 | CCc1cc(Nc2nc(Nc3ccccc3P(C)(C)=O)c3cc[nH]c3n2)c(C(F)(F)F)cc1N1CCC(N2CCN(CCCCOc3cccc4c3CN(C3CCC(=O)NC3=O)C4=O)CC2)CC1 (stereo not shown) [Example E154] | 446 nM | > 4000 nM | > 4000 nM | 3430 nM
14 | CCc1cc(Nc2ncc(Cl)c(Nc3ccccc3P(C)(C)=O)n2)c(OC)cc1N1CCC(N2CCN([C@H]3C[C@@H](Oc4cccc5c4CN(C4CCC(=O)NC4=O)C5=O)C3)CC2)CC1 (stereo partly shown) [Example E159] | 1.4 nM | 1850 nM | 646 nM | 21.9 nM
15 | CCc1cc(Nc2nc(Nc3ccccc3P(C)(C)=O)c3cn[nH]c3n2)c(OC)cc1N1CCC(N2CCN(CCCCOc3cccc4c3CN(C3CCC(=O)NC3=O)C4=O)CC2)CC1 (stereo not shown) [Example E161] | 2 nM | 1290 nM | 1190 nM | 135 nM
16 | CCc1cc(Nc2ncc(-c3cc[nH]n3)c(Nc3ccccc3P(C)(C)=O)n2)c(OC)cc1N1CCC(N2CCN(CCOc3cccc4c3CN(C3CCC(=O)NC3=O)C4=O)CC2)CC1 (stereo not shown) [Example E164] | 7.7 nM | > 4000 nM | > 4000 nM | > 4000 nM

Row | SMILES | IC50 [1] | IC50 [2] | IC50 [3] | IC50 [4]
17 | CCc1cc(Nc2ncc(-n3ccnc3)c(Nc3ccccc3P(C)(C)=O)n2)c(OC)cc1N1CCC(N2CCN(CCOc3cccc4c3CN(C3CCC(=O)NC3=O)C4=O)CC2)CC1 (stereo not shown) [Example E170] | 3.5 nM | > 4000 nM | > 4000 nM | > 4000 nM
18 | CCc1cc(Nc2ncc(-n3cncn3)c(Nc3ccccc3P(C)(C)=O)n2)c(OC)cc1N1CCC(N2CCN(CCOc3cccc4c3CN(C3CCC(=O)NC3=O)C4=O)CC2)CC1 (stereo not shown) [Example E171] | 6.3 nM | > 4000 nM | > 4000 nM | > 4000 nM
19 | CCc1cc(Nc2ncc(-c3cnn(C)c3)c(Nc3ccccc3P(C)(C)=O)n2)c(OC)cc1N1CCC(N2Cc3ccc(Oc4cccc5c4CN(C4CCC(=O)NC4=O)C5=O)cc3C2)CC1 (stereo not shown) [Example E172] | 2.4 nM | > 4000 nM | 1070 nM | > 4000 nM
20 | CCc1cc(Nc2ncc(Cl)c(Nc3ccccc3P(C)(C)=O)n2)c(OC)cc1N1CCC(N2Cc3ccc(Sc4cccc5c4CN(C4CCC(=O)NC4=O)C5=O)cc3C2)CC1 (stereo not shown) [Example E173] | 21.7 nM | > 4000 nM | 1530 nM | 181 nM
21 | CCc1cc(Nc2ncc(-c3ccnn3C)c(Nc3ccccc3P(C)(C)=O)n2)c(OC)cc1N1CCC(N2CCN(CCOc3cccc4c3CN(C3CCC(=O)NC3=O)C4=O)CC2)CC1 (stereo not shown) [Example E176] | 2.4 nM | > 4000 nM | > 4000 nM | > 4000 nM
22 | CCc1cc(Nc2ncc(-c3nnc(C)o3)c(Nc3ccccc3P(C)(C)=O)n2)c(OC)cc1N1CCC(N2CCN(CCOc3cccc4c3CN(C3CCC(=O)NC3=O)C4=O)CC2)CC1 (stereo not shown) [Example E177] | 15.7 nM | > 4000 nM | > 4000 nM | > 4000 nM
23 | CCc1cc(Nc2ncc(Cl)c(Nc3ccccc3P(C)(C)=O)n2)c(OC)cc1N1CCC(N2CCC3(CC(Oc4ccc5c(c4)CN(C4CCC(=O)NC4=O)C5=O)C3)C2)CC1 (stereo not shown) [Example E187] | 19.5 nM | 1460 nM | 815 nM | 50.3 nM
24 | CCc1cc(Nc2ncc(-c3cnn(C)c3)c(Nc3ccccc3P(C)(C)=O)n2)c(OC)cc1N1CCC(N2CCN(CCOc3cc4c(cc3F)C(=O)N(C3CCC(=O)NC3=O)C4)CC2)CC1 (stereo not shown) [Example E189] | 0.8 nM | 1010 nM | 496 nM | > 4000 nM
25 | CCc1cc(Nc2ncc(Cl)c(Nc3ccccc3P(C)(C)=O)n2)c(OC)cc1N1CCC(N2CCN([C@H]3C[C@H](Oc4ccc5c(c4)CN(C4CCC(=O)NC4=O)C5=O)C3)CC2)CC1 (stereo partly shown) [Example E191] | 3.1 nM | 1150 nM | 947 nM | 69.2 nM
26 | CCc1cc(Nc2ncc(-c3cc(C)n[nH]3)c(Nc3ccccc3P(C)(C)=O)n2)c(OC)cc1N1CCC(N2CCN(CCOc3ccc4c(c3)CN(C3CCC(=O)NC3=O)C4=O)CC2)CC1 (stereo not shown) [Example E192] | 43.8 nM | > 4000 nM | > 4000 nM | > 4000 nM
27 | CCc1cc(Nc2ncc(-c3cn(C)nn3)c(Nc3ccccc3P(C)(C)=O)n2)c(OC)cc1N1CCC(N2CCN(CCOc3ccc4c(c3)CN(C3CCC(=O)NC3=O)C4=O)CC2)CC1 (stereo not shown) [Example E193] | 14.9 nM | > 4000 nM | 1320 nM | > 4000 nM
28 | CCc1cc(Nc2ncc(-c3cnn(C)c3)c(Nc3ccccc3P(C)(C)=O)n2)c(OC)cc1N1CCC(N2CCN(CCOc3cc(F)cc4c3CN(C3CCC(=O)NC3=O)C4=O)CC2)CC1 (stereo not shown) [Example E194] | 0.5 nM | 1360 nM | 535 nM | > 4000 nM
29 | CCc1cc(Nc2nc(Nc3ccccc3P(C)(C)=O)c3cn[nH]c3n2)c(OC)cc1N1CCC(N2CCN(CCOc3cc4c(cc3F)C(=O)N(C3CCC(=O)NC3=O)C4)CC2)CC1 (stereo not shown) [Example E208] | 16.1 nM | 1350 nM | 1010 nM | 532 nM
30 | CCc1cc(Nc2ncc(-n3cnc(C)c3)c(Nc3ccccc3P(C)(C)=O)n2)c(OC)cc1N1CCC(N2CCN(CCOc3ccc4c(c3)CN(C3CCC(=O)NC3=O)C4=O)CC2)CC1 (stereo not shown) [Example E214] | 3.4 nM | 1460 nM | 616 nM | > 4000 nM
31 | CCc1cc(Nc2ncc(-c3cnn(C)c3)c(Nc3ccc(C)cc3P(C)(C)=O)n2)c(OC)cc1N1CCC(N2CCN(Cc3ccc4c(c3)CN(C3CCC(=O)NC3=O)C4=O)CC2)CC1 (stereo not shown) [Example E216] | 1 nM | > 4000 nM | 926 nM | > 4000 nM
